Structures can show the parent of a compound that is named as a salt. Where two headings read alike, the source gives them in different places.
What was measured:
[1] = tested on: synthesis of LTB4 by rat glycogen-elicited polymorphonuclear leukocytes (PMN); test: inhibition of LTB4 synthesis by rat glycogen-elicited PMN (Example 72); assay type: cell-based, rat (female Wistar); settings: Leukocyte; for inhibition at 10000 µM: at 10 mM, negative number denotes potentiation; for inhibition at 500 µM: at 0.5 mM
Excerpt: This is especially true with respect to 5,12-diHETE, which is also denoted as LTB4 lsee Ford-Hitchinson, J. Roy. Soc. Med., 74, 831 (1981)]. Compounds which inhibit the PLA2 -mediated release of arachidonic acid thereby effectively prevent the oxidation of arachidonic acid to the various leukotriene products via the lipoxygenase cascade. Accordingly, the specificity of action of PLA2 inhibitors can be determined by the activity of test compounds in this assay, which measures the ability of compounds to inhibit the synthesis of LTB4 by rat glycogen-elicited polymorphonuclear leukocytes (PMN) in the presence of exogenous substrate.
The assay is carded out as follows:
(§1) Rat polymorphonuclear leukocytes (PMNs) are obtained from female Wistar rats (150-200 g) which receive an injection of 6% glycogen (10 ml i.p.). Rats are sacrificed 18-24 hours post injection by CO2 asphyxiation and the elicited cells are harvested by peritoneal lavage using physiological saline (0.9% NaC1). The exudate is centrifuged at 400 ×g for 10 minutes. The supernatant fluid is discarded and the cell pellet is resuspended to a concentration of 2.0×10^7 cells/mL in HBSS containing Ca^++ and Mg^++ and 10 mM L-cysteine.
(§2) To 1 mL aliquots of cell suspension, test drugs or vehicle are added, then preincubated at 37° C. for 10 minutes. A23187 (1 mM), [^3 H]-AA (3.0 mCi/mL) and unlabeled AA (1 mM) are then added and the samples are further incubated for 10 minutes. The reaction is terminated by centrifugation and pelleting cells. Supernatants are then analyzed by HPLC analysis on a 15 cm×4.6 mm ID supelcosil LC-18 (Supelco)(3M) column, using a two solvent system at a flow rate of 1.4 mL total flow as follows:
Gradient: (system is equilibrated with Solvent A)
Percent solvent changes are accomplished in a linear fashion.
Injections: […] of each supernatant is injected directly onto column and ^3 H arachidonic acid metabolites are monitored using an on-line radioactivity detector (Ramona, IN/U S, Fairfield, NJ).
Standards: 10^4 -2.0×10^4 dpm of eicosanoids of interest are injected in […] EtOH cocktail.
Co-chromatography with standard [^3 H] leukotriene B4 (LTB4) in medium of stimulated PMN exposed to drug is compared to that found in medium of stimulated cells exposed to no drug, generating percent inhibition.
Results are expressed as percent inhibition at a given compound dose or as an IC50 value.

[2] = tested on: cyclooxygenase (PGE2 synthesis) in rat polymorphonuclear leukocytes (PMN); test: inhibition of PGE2 synthesis (cyclooxygenase) by rat glycogen-elicited PMN (Example 73); assay type: cell-based, rat (female Wistar); settings: Leukocyte; for inhibition at 10000 µM: at 10 mM
Procedure: as §1, §2
In this assay, the procedure of Example 72 is carried out as described. However, in order to determine cyclooxygenase activity, the samples are cochromatographed with authentic reference [^3 H]-PGE2.
The results be calculated as in Example 72 and presented below: […]

[3] = biological target: T1, human synovial fluid PLA2 (Homo sapiens, UniProt P14555); test: in vitro isolated phospholipase A2 assay, human synovial fluid PLA2 (Example 74); assay type: biochemical; set-up: inhibition / % Inhibition, HSF (human synovial fluid): dose or concentration left out as unconfirmed; settings: for IC50: Table III, read-out: IC50 HSF (human synovial fluid); for inhibition: read-out: % Inhibition, HSF (human synovial fluid)
T1 sequence (P14555 21-144): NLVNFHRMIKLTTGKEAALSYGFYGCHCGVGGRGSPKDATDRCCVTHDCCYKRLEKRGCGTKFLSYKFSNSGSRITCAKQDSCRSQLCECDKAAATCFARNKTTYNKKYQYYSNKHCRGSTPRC
Procedure: (§3) The compounds of the invention are tested in an in vitro isolated phospholipase A2 assay to determine the ability of the test compounds to inhibit the release of arachidonic acid from an arachidonic acid-containing substrate by the action of phospholipase A2 enzyme from human and non-human sources.
(§4) This assay is carried out as follows:
(§5) Into a 15 mL polypropylene tube are added the following:
(§6) ^6 Two human PLA2 enzymes are used:
b) Purified human synovial fluid.
(§7) Incubate the 100mL reaction mixture for 10 minutes at 37° C. in a shaking water bath. The reaction is terminated by the addition of 2 mL tetrahydrofuran, followed by vortexlag. NH2 columns (100 mg/mL--Analytichem International) are conditioned with 0.5 mL tetrahydrofuran followed by 0.5 mL tetrahydrofuran/water (2 mL:0.1 mL, v/v).
(§8) The sample is loaded onto the columns and slowly drawn through them. The hydrolyzed arachidonic acid retained in the columns is eluted therefrom with 1 mL tetrahydrofuran/glacial acetic acid (2%). The arachidonic acid is transferred to scintillation vials and quantitated by b-counting analysis. A "total counts" sample is prepared by pipetting […] ^3 H-arachidonate E. coli directly into a scintillation vial to which is added 1 mL tetrahydrofuran. 10 mL aquasol (scintillation cocktail) is added to all samples. [formula]

[4] = biological target: T2, human platelet PLA2 (Homo sapiens, UniProt P14555); test: in vitro isolated phospholipase A2 assay, human platelet PLA2 (Example 74); assay type: biochemical; set-up: dose or concentration left out as unconfirmed; settings: read-out: % Inhibition, HP (human platelet)
T2 construct: Semi-purified human platelet acid extract PLA2; from tissue; host or cells: human platelets (semi-purified acid extract)
T2 sequence (P14555 21-144): T1 sequence (P14555 21-144)
Procedure: as §3, §4, §5, §6
a) Semi-purified human platelet acid extract PLA2 (in 10 mM
sodium acetate buffer, pH 4.5). Remove protein precipitate by
centrifugation at about 2200 rpm for 10 minutes.
as §7, §8

[5] = tested on: 5-lipoxygenase in human whole blood; test: inhibition of 5-lipoxygenase in human whole blood (Example 79); assay type: cell-based; settings: 25 μM
Procedure: The assay of this Example measures the ability of the compounds tested to inhibit 5-lipoxygenase in human whole blood.
as §4
Blood is obtained in 50-100 ml quantities from male donors. White blood cell counts and differentials are made. Two ml of blood are placed in a 15 ml polypropylene test tube. Compounds are solubilized in dimethylsulfoxide and diluted 1:10 in 10% bovine serum albumin in phosphate buffered saline, pH 7.4 resulting in a final dimethylsulfoxide concentration of 0.1% in the blood. Then, compounds are added to the blood in a shaking water bath at 37° C. for 10 minutes prior to the addition of […] calcium ionophore (A23187; Sigma). After ionophore administration, whole blood samples are mixed and incubated for 20 minutes at 37° C. in a shaking water bath. Incubation is terminated by placing samples in an ice bath and immediately adding ethylene glycol-bis-(b-aminoethyl ether)-N,N,N',N'-tetraacetic acid (10 mM). Samples are mixed and centrifuged at 1200 × g for 15 minutes at 4° C. Preparation of samples for evaluation by RIA or ELISA is carried out by the following protocol. Plasma is removed from sample tubes, placed in 15 ml polypropylene test tubes containing 8 ml methanol, and then vortexed to precipitate protein. Samples are stored at -70° C. overnight. The next day, samples are centrifuged at 200 × g for 15 minutes at 4° C. to pellet the precipitate. Samples are dried in a Savant speed vac concentrator, reconstituted to original volume with ice cold RIA or ELISA buffer, and stored at -70° C. until assayed. The assay for eicosanoids (LTB4, T×B2, and PGE2) is performed as described by the manufacturer of the [^3 H]-RIA kit or ELISA kit (LTB4 -Amersham, TxB2 and PGE2 - Caymen Chemical).
The total eicosanoid level in 2 ml of blood is calculated and reported as ng/10^6 neutrophils. […] Drug effects are expressed as percent change from control values.
Compounds tested in vitro are solubilized in dimethylsulfoxide and diluted 1:10 in 10% bovine serum albumin in phosphate buffer saline resulting in a final dimethylsulfoxide concentration of 0.1% i n the blood.

[6] = * (negative) denotes a potentiation, read-out: % Inhibition (PGE2 synthesis)
[7] = read-out: % Inhibition (PGE2 synthesis), symbol only

| IC50 [3] | inhibition [3] | SMILES | inhibition at 10000 µM [1] | inhibition at 10000 µM [2, 6] | other results |
| --- | --- | --- | --- | --- | --- |
| 15.5 µM | 53% | CCCCCn1c(C)c(CC(=O)O)c2cc(OCc3ccc4ccccc4n3)ccc21 [Example 29, 2-Methyl-1-pentyl-5-(2-quinolinylmethoxy)-1H-indole-3-acetic acid hemihydrate] | 88% | -123% |  |
| 2.6 µM | 92% | Cc1c(CC(=O)O)c2cc(OCc3ccc4ccccc4n3)ccc2n1Cc1ccccc1 [Example 26, 1-[(Phenyl)methyl-2-methyl]-5-(2-quinolinylmethoxy)-1H-indole-3-acetic acid tenth hydrate] | 85% | -125% |  |
|  | 56% | Cc1c(CC(=O)O)c2cc(OCc3ccc4ccccc4n3)ccc2n1Cc1ccc(F)cc1 [Example 24, 1-[(4-Fluorophenyl)methyl]-2-methyl-5-(2-quinolinylmethoxy)-1H-indole-3-acetic acid hemihydrate] | 97% | -126% |  |
|  | 34% | Cc1c(CC(=O)O)c2cc(OCc3csc(-c4ccccc4)n3)ccc2n1CCCc1ccccc1 [Example 63, 5-[(2-Phenyl-4-thiazolyl)methoxy]-1-(3-phenylpropyl)-2methyl-1H-indole-3-acetic acid] |  |  | inhibition [4]: 2% |
|  | 23% | Cc1c(CC(N)=O)c2cc(OCc3nc4ccccc4s3)ccc2n1Cc1ccc(Cl)cc1 [Example 45, 5-(2-Benzothiazolylmethoxy)-1-[(4-chlorophenyl)methyl]-2-methyl-1H-indole-3-acetamide] |  |  | inhibition [4]: 33% |
|  | 54% | Cc1c(CC(=O)NOCc2ccccc2)c2cc(OCc3nc4ccccc4s3)ccc2n1Cc1ccc(Cl)cc1 [Example 48, 5-(2-Benzothiazolylmethoxy)-1-[(4-chlorophenyl)methyl]-N-(phenylmethoxy)-2-methyl-1H-indole-3-acetamide] |  |  | inhibition [4]: 4% |
|  | 11% | Cc1c(CC(=O)O)c2cc(OCc3ccc4ccccc4n3)ccc2n1Cc1ccc(Br)cc1 [Example 25, 1-[(4-Bromophenyl)methyl]-2-methyl-5-(2-quinolinylmethoxy)-1H-indole-3-acetic acid hemihydrate] | 93% | -67% |  |
| 16.4 µM | 46% | CCCCCCn1c(C)c(CC(=O)O)c2cc(OCc3ccc4ccccc4n3)ccc21 [Example 30, 1-Hexyl-2-methyl-5-(2-quinolinylmethoxy)-1H-indole-3-acetic acid three quarters hydrate] | 90% | -130% |  |
| 14.9 µM | 58% | Cc1c(CC(=O)O)c2cc(OCc3ccc4ccccc4n3)ccc2n1C(=O)c1ccc(Cl)cc1 [Example 17, 1-(4-Chlorobenzoyl)-2-methyl-5-(2-quinolinylmethoxy)-1H-indole-3-acetic acid three quarters hydrate] |  |  | inhibition at 500 µM [1]: 46%; inhibition at 500 µM ([2]; at 0.5 mM, * (negative) denotes a potentiation): 60% |

The next lines start with the compound.

| SMILES | IC50 [3] | inhibition [3] | inhibition at 10000 µM [1] | inhibition at 10000 µM [2, 6] | other results |
| --- | --- | --- | --- | --- | --- |
| CC(C(=O)O)c1ccc2c(c1)[nH]c1ccc(Cl)cc12 (stereo not drawn) [carprofen, reference compound] |  |  | -10% | 83% |  |
| Cc1c(CC(=O)O)c2cc(OCc3ccc4ccccc4n3)ccc2n1Cc1ccc(Cl)cc1 [Example 16, 1-[(4-Chlorophenyl)methyl]-2-methyl-5-(2-quinolinylmethoxy)-1H-indole-3-acetic acid hydrochloride quarter hydrate] | 4.1 µM | 46% | 96% |  | % Inhibition of LTB4 [5]: 18%; inhibition at 10000 µM [2, 7]: < 0% |
| CCc1cc(OCc2ccc3ccccc3n2)cc2c3c([nH]c12)C(CC)(CC(=O)O)OCC3 (stereo not drawn) [Example 8, 1,8-Diethyl-1,3,4,9-tetrahydro-6-(2-quinolinylmethoxy)pyrano[3.4-b]indole-1-acetic acid] |  |  | 91% | 47% |  |
| CC(C(=O)O)c1ccc2c3cc(OCc4ccc5ccccc5n4)ccc3n(Cc3ccc4ccccc4n3)c2c1 (stereo not drawn) [Example 21, a-Methyl-6-(2-quinolinylmethoxy)-9-(2-quinolinylmethyl)-9H-carbazole-2-acetic acid] |  |  | 92% | -94% |  |
| COC(=O)Cc1c(C)n(C(=O)c2ccc(Cl)cc2)c2ccc(OCc3ccc4ccccc4n3)cc12 [Example 17A, 1-(4-Chlorobenzoyl)-2-methyl-5-(2-quinolinylmethoxy)-1H-indole-3-acetic acid methyl esterone tenth hydrate] |  |  | 96% | 50% |  |
| CC1=C(CC(=O)O)c2cc(F)ccc2/C1=C\c1ccc([S+](C)[O-])cc1 (stereo not drawn) [sulindac, reference compound] |  |  | -10% | 23% |  |
| COC(=O)Cc1c(C)n(Cc2ccc(Cl)cc2)c2ccc(OCc3ccc4ccccc4n3)cc12 [Example 16C, 1-[(4-Chlorophenyl)methyl]-2-methyl-5-(2-quinolinylmethoxy)-1H-indole-3-acetic acid methyl ester] |  |  |  |  | inhibition at 500 µM [1]: 88%; inhibition at 10000 µM [2, 7]: < 0% |

From US5420289A, “Substituted indole-, indene-, pyranoindole- and tetrahydrocarbazole-alkanoic acid derivatives as inhibitors of PLA2 and lipoxygenase” (American Home Products Corporation, priority 1993, dated 1995)
